Molecular target: T1, hVR1 (Homo sapiens, UniProt Q8NER1)
T1 construct: expressed in transfected cells
Experiment: hVR1 FLIPR (Fluorometric Image Plate Reader) screening assay, IC50 determination
Type: cell-based
Settings: CHO cells stably expressing hVR1
Description: 1. hVR1FLIPR (Fluorometric Image Plate Reader) Screening Assay
Transfected CHO cells, stably expessing hVR1 (15,000 cells/well) are seeded in 50 ul media in a black clear bottom 384 plate (Greiner) and grown in a humidified incubator (37° C., 2% CO2), 24-30 hours prior to experiment.
Subsequently, the media is removed from the cell plate by inversion and 2 μM Fluo-4 is added using a multidrop (Labsystems). Following the 40 minutes dye incubation in the dark at 37° C. and 2% CO2, the extracellular dye present is washed away using an EMBLA (Scatron), leaving the cells in 40 ul of assay buffer (1×HBSS, 10 mM D-Glucose, 1 mM CaCl2, 10 mM HEPES, 10×7.5% NaHCO3 and 2.5 mM Probenecid).
FLIPR Assay—IC50 Determination Protocol
For IC50 determinations the fluorescence is read using FLIPR filter 1 (em […]). A cellular baseline recording is taken for 30 seconds, followed by a 20 μl addition of 10, titrated half-log concentrations of the test compound, yielding cellular concentration ranging from 3 μM to 0.1 nM. Data is collected every 2 seconds for a further 5 minutes prior to the addition of a VR1 agonist solution: either 50 nM solution of capsaicin or MES (2-[N-morpholino]ethanesulfonic acid) buffer (pH 5.2), by the FLIPR pipettor. The FLIPR continues to collect data for a further 4 minutes. Compounds having antagonistic properties against the hVR1 will inhibit the increase in intracellular calcium in response to the capsaicin addition. This consequently leading to a reduction in fluorescence signal and providing a reduced fluorescence reading, compared with no compound, buffer controls. Data is exported by the FLIPR program as a sum of fluorescence calculated under the curve upon the addition of capsaicin. Maximum inhibition, Hill slope and IC50 data for each compound are generated.

[1] = agonist low pH (MES buffer pH 5.2)

T1 sequence (Q8NER1 whole entry): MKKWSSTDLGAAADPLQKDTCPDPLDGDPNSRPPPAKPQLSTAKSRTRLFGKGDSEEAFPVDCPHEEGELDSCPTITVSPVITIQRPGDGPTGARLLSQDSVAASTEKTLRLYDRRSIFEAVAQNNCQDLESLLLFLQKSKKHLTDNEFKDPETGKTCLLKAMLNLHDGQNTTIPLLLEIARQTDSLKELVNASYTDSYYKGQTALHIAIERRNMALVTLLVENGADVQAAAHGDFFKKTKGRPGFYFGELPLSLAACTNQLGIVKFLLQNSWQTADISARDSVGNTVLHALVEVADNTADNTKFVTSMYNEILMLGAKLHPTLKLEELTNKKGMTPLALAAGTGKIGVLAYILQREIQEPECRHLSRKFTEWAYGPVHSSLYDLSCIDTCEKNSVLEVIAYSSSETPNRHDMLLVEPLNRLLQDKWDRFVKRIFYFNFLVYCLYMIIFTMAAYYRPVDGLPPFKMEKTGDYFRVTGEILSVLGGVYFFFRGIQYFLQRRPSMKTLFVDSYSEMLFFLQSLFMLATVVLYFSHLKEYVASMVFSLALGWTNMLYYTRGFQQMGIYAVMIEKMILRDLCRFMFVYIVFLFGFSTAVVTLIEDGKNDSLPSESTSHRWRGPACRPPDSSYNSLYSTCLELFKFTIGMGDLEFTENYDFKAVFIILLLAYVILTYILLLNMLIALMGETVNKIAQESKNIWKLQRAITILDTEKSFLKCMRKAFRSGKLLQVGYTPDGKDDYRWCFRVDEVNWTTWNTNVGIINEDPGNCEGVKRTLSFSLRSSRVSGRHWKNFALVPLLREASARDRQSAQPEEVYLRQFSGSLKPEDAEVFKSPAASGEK

IC50 (agonist capsaicin (50 nM)) | IC50 [1] | Structure (SMILES)
48 nM | 108 nM | O=C(Cn1cnc2cccc([N+](=O)[O-])c21)Nc1cc(F)c(F)c(F)c1 [Example 14, 2-(7-Nitro-1H-benzimidazol-1-yl)-N-(3,4,5-trifluorophenyl)acetamide]
22 nM | 45 nM | COCCOc1cc(NC(=O)Cn2cnc3cccc([N+](=O)[O-])c32)cc(OC)c1 [Example 10, N-[3-Methoxy-5-(2-methoxyethoxy)phenyl]-2-(7-nitro-1H-benzimidazol-1-yl)acetamide]
518 nM | 508 nM | COc1cc(NC(=O)Cn2cnc3cccc(C(C)=O)c32)cc(OC)c1 [Example 35, 2-(7-Acetyl-1H-benzimidazol-1-yl)-N-(3,5-dimethoxyphenyl)acetamide]
77 nM | 53 nM | COc1cc(NC(=O)Cn2cnc3cccc(C(C)=O)c32)cc(C(F)(F)F)c1 [Example 32, 2-(7-Acetyl-1H-benzimidazol-1-yl)-N-[3-methoxy-5-(trifluoromethyl)phenyl]acetamide]
